Reference: US20120252721A1 (priority 2011, published 2012)

Columns and labels:
[1] = test system: HCV genotype 1b replicon, NS5B S282T; assay: Luciferase replicon transient transfection assay, genotype 1b NS5B S282T; type: cell-based, hepatitis C virus
Method: (§1) The luciferase replicon transient transfection assay measures the ability of a test compound to inhibit the replication of a transiently-transfected HCV luciferase-bearing wild-type or mutant replicon in cured human hepatoma cells (Huh7.5). The inhibition of HCV replication was measured by quantification of luciferase protein expression. This assay has been validated using a panel of genotype 1a and 1b replicons bearing mutations known to be associated with resistance to BMS-790052. Briefly, subconfluent Huh7.5 cells were electroporated with 10 μg of wild-type or mutant luciferase-bearing HCV replicon RNA. The cells were then seeded in 96-well opaque white plates at 3×10^4 cells/well in 150 μL/well and incubated for 4 hrs at 37° C./5% CO2. […] The plates were agitated on a rotating platform at room temperature for 3 min and read in a Victor^3V microplate reader (Perkin-Elmer) using a 700 nm cut-off filter with a 1 sec read time. EC50 values were calculated from dose response curves from the resulting best-fit equations determined by Microsoft Excel and XLfit 4.1 software.
(§2) To determine the replication capacity of each mutant relative to the wild-type parental replicon, transfected cells were plated on two plates and were not treated with compound. Luciferase activity was measured at time points of 4 hrs and 4 days after plating for each replicon. […]

[2] = test system: HCV genotype 1b replicon, NS5B M414T; assay: Luciferase replicon transient transfection assay, genotype 1b NS5B M414T; type: cell-based, hepatitis C virus
Method: as §1, §2

[3] = test system: HCV genotype 3a NS5A within the 1b-replicon; assay: Luciferase replicon assay, NS5A-intergenotypic stable cell line genotype 3a; type: cell-based; details: Hepatitis C virus, read-out: EC50 3a
Description: The nucleotide sequences of the NS5A region of genotype 2a (GenBank Accession # AB047639), genotype 3a (GenBank Accession #D17763), and genotype 4a (GenBank Accession# DQ418788) were synthesized by an outside vendor. The NS5A region of each of these genotypes included the first 11 amino acids of the protease recognition sequence of genotype 1b, as well as the last 10 amino acids of genotype 1b. The NS5A gene cassettes were excised with site specific restriction endonucleases and ligated into a ZS11-luciferase genotype 1b backbone (backbone contains the genotype 1b NS3 protease, NS4a, NS4b, and NS5b coding regions) with similarly cut restriction enzyme sites. Thus, the newly constructed plasmid contains a genotype 2a-, 3a- or 4a-specific NS5A gene within the 1b-replicon.
These new intergenotypic plasmids were used to establish stable cell lines. RNA was generated from the NS5A intergenotypic plasmids and used in conjunction with a lipofectin reagent to transfect a cured Huh7 cell line. Transfected cells were selected for with G418. After selection has occurred the stable cell lines were propagated, tested for luciferase activity, and RT-PCR with genotype specific primers (either 1a, 2a, 3a, or 4a). Stable cell lines containing the intergenotypic replicon were then fully sequenced and analyzed for proper expression of NS3, NS5A and NS5B proteins.
Drug titration analysis was performed using the luciferase replicon assay described herein.
The HCV luciferase replicon assay measures the ability of a test compound to inhibit HCV replication in cell culture after 3 days of treatment in a human hepatoma cell line (Huh-7) bearing an HCV replicon containing a luciferase-neomycin phosphotransferase fusion gene. The inhibition of HCV replication was measured by quantification of luciferase protein expression. Briefly, Huh-7 cells containing either the HCV genotype 1a H77 strain or genotype 1b Con1 strain subgenomic luciferase replicon (H1a-luc or Zluc, respectively) were grown in DMEM containing glucose, L-glutamine and sodium pyruvate, 10% fetal bovine serum (FBS), 100 IU/mL penicillin, 100 μg/mL streptomycin, 2 mM GlutaMAX, non-essential amino acids and 0.25 (H1a-luc) or 0.5 (Zluc) mg/mL G418. GlutaMAX was obtained from Invitrogen, Corp.; all other media reagents were obtained from Mediatech, Inc. For dose-response testing, the cells were seeded in 96-well plates at 1×10^4 (H1a-luc) or 7.5×10^3 (Zluc) cells/well in a volume of 50 μL, and incubated at 37° C./5% CO2. Three hours after plating, 50 μL of ten 5-fold serial dilutions of compound were added, and cell cultures were incubated at 37° C./5% CO2 for 72 hours. In all cases, Huh-7 cells lacking the HCV replicon served as negative control. To assess luciferase expression, the media/compound was removed from the plates and ONE-glo Luciferase assay reagent (Promega) was added to each well. The assay plates were shaken for 3 minutes at room temperature and luciferase activity for each well was measured with a 1 sec read time on the Victor^3V multilabel counter using a 700 nm cut-off filter (Perkin Elmer). EC50 values were calculated from dose response curves from the resulting best-fit equations determined by Microsoft Excel and XLfit 4.1 software.

Row | SMILES | EC50 ([1]; Hepatitis C virus, genotype 1b, NS5B mutation S282T (confers resistance to 2′-C-Methylnucleoside)) | Ratio ([1]; {}) | EC50 ([2]; Hepatitis C virus, genotype 1b, NS5B mutation M414T (confers resistance to Benzothiadiazine)) | Ratio ([2]; {}) | EC50 [3]
1 | COC(=O)N[C@H](C(=O)N1CCC[C@H]1c1nc2cc(-c3csc4c(-c5ccc(-c6cnc([C@@H]7CCCN7C(=O)[C@H](NC(=O)OC)c7ccccc7)[nH]6)cc5)csc34)ccc2[nH]1)C(C)C [Compound A169, [(S)-1-((S)-2-{6-[6-(4-{(S)-2-[1-((R)-2-methoxycarbonylamino-2-phenyl-acetyl)-pyrrolidin-2-yl]-3H-imidazol-4-yl}-phenyl)-thieno[3,2-b]thiophen-3-yl]-1H-benzoimidazol-2-yl}-pyrrolidine-1-carbonyl)-2-methyl-propyl]-carbamic acid methyl ester] | 1.4 pM | 0.83 | 1.8 pM | 1.05 | 
2 | COC(=O)N[C@H](C(=O)N1CCC[C@H]1c1ncc(-c2ccc(-c3csc4c(-c5cnc([C@@H]6CCCN6C(=O)[C@@H](NC(=O)OC)C(C)C)[nH]5)csc34)cc2)[nH]1)C(C)C [Compound A15, [(S)-1-((S)-2-{4-[4-(6-{2-[(S)-1-((S)-2-methoxycarbonylamino-3-methyl-butyryl)-pyrrolidin-2-yl]-3H-imidazol-4-yl}-thieno[3,2-b]thiophen-3-yl)-phenyl]-1H-imidazol-2-yl}-pyrrolidine-1-carbonyl)-2-methyl-propyl]-carbamic acid methyl ester] |  |  |  |  | 100 to 1000 pM
